Test results taken from US10080748B2, “Use of flap inhibitors to reduce neuroinflammation mediated injury in the central nervous system” (Bioscience Pharma Partners, LLC, priority 2014, dated 2018).

How the values were obtained:
[1] = test system: rats subjected to FPI (TBI model); test: Gd-enhanced T1-weighted MRI, BBB disruption 72 hours after TBI (rat FPI); assay type: in vivo
Description: Craniotomy and lateral fluid percussion injury (FPI) were performed using a previously validated and published procedure. Farias S, et al. J. Neurotraum, 26, 1977-1986, 2009; Frey L. C. et al. J. Neurosci. Methods 177, 267-272, 2009. Throughout the specification animals subjected to this protocol are referred to as having a TBI since this treatment protocol is a TBI model. Briefly, rats were anesthetized with 3-5% isoflurane, isosol, VEDCO Inc., St. Joseph, Mo., via nose cone and mounted in a stereotaxic head frame. A 3 millimeter (mm) craniotomy was created and centered at 3 mm caudal to bregma and 3.5 mm left of the sagittal suture, keeping the exposed dura intact. One steel support screw was embedded in the skull on the contralateral side. A Luer-Lock hub with an inside diameter of 3.5 mm was centered over the craniotomy and bonded to the skull with cyanoacrylate adhesive and capped. Dental acrylic, Snap, Parka, Inc., Edgewood, N.J., was poured around the huh and screw. After the acrylic hardened antibiotic ointment was applied around the cap and the animals were returned to their cages. The next day, approximately 15-20 hours later, animals were anesthetized with isoflurane in an induction chamber, immediately connected to the FPI apparatus, and received a 20 millisecond (ms) pulse of pressurized sterile saline at 2.7 atmospheres (atm) of pressure to simulate a moderate severity impact on the intact dural surface through the craniotomy before awakening from anesthesia. […] All animals received a subcutaneous injection of the analgesic, buprenorphine, 0.05 milligram/kilogram (mg/kg) Buprenex, prior to craniotomy, and subsequent injections every 12 hours for two days. Moistened food pellets were provided after injury, and all animals were monitored daily for well-being and weight changes. […]
The effect of leukotrienes on TBI-related BBB disruption was assessed using Gd-enhanced T1-weighted MRI 72 hours after TBI in rats. […]

[2] = cited from earlier work
[3] = test system: rats subjected to FPI (TBI model); test: Hippocampal long-term potentiation (LTP) in slices four days after TBI (rat FPI); assay type: in vivo
Description: (§1) Craniotomy and lateral fluid percussion injury (FPI) were performed using a previously validated and published procedure. Farias S, et al. J. Neurotraum, 26, 1977-1986, 2009; Frey L. C. et al. J. Neurosci. Methods 177, 267-272, 2009. Throughout the specification animals subjected to this protocol are referred to as having a TBI since this treatment protocol is a TBI model. Briefly, rats were anesthetized with 3-5% isoflurane, isosol, VEDCO Inc., St. Joseph, Mo., via nose cone and mounted in a stereotaxic head frame. A 3 millimeter (mm) craniotomy was created and centered at 3 mm caudal to bregma and 3.5 mm left of the sagittal suture, keeping the exposed dura intact. One steel support screw was embedded in the skull on the contralateral side. A Luer-Lock hub with an inside diameter of 3.5 mm was centered over the craniotomy and bonded to the skull with cyanoacrylate adhesive and capped. Dental acrylic, Snap, Parka, Inc., Edgewood, N.J., was poured around the huh and screw. After the acrylic hardened antibiotic ointment was applied around the cap and the animals were returned to their cages. […] Moistened food pellets were provided after injury, and all animals were monitored daily for well-being and weight changes. […]
Four days after FPI or at the times indicated in the figures for CHI model animals were sacrificed and the brains were rapidly removed and immersed in ice-cold, sucrose containing cutting buffer (87 mM NaCl, 2.5 mM KCl, 7 mM MgCl2, 0.5 mM CaCl2, 1.25 mM NaH2PO4, 25 mM D-glucose, 35 mM sucrose, and 25 mM NaHCO3) for 40-60 seconds to cool the interior of the brain. […] A bipolar tungsten stimulating electrode was placed in the Schaffer collateral (SC) pathway to evoke synaptic field excitatory postsynaptic potentials (fEPSPs) recorded in the stratum radiatum using a nearby glass micropipette filled with aCSF. […]

[4] = test system: rats subjected to FPI (TBI model); test: Volume of cell death 72 hours after TBI (rat FPI); assay type: in vivo; settings: 6 mg/kg IV 30 minutes prior to TBI; measured 72 hours later
Description: as §1
Rats were administered a single-dose of the FLAP inhibitor MK-886, 6 mg/kg IV by tail vein, 30 minutes prior to TBI. […] Results are expressed as the average±SEM. […]

## CC(C)c1ccc2c(c1)c(SC(C)(C)C)c(CC(C)(C)C(=O)O)n2Cc1ccc(Cl)cc1 [MK-886, 1-[(4-Chlorophenyl)methyl]-3-[(1,1-dimethylethyl)thio]-α,α-dimethyl-5-(1-methylethyl)-1H-Indole-2-propanoic acid]
[1]; 15 min post-injury
  Gd extravasation: no effect
[1]; 30 min pre-injury
  Gd extravasation: no effect
[1]; 60 min post-injury
  Gd extravasation: no effect
[2]
  plasma protein binding: high
[3]; 30 minutes post-injury
  LTP, % of control fEPSP slope at 58-60 min: 256.13+/−8.527%
[3]; 30 minutes pre-injury
  LTP, % of control fEPSP slope at 58-60 min: 242.75+/−76.94%
[3]; 60 minutes post-injury
  LTP, % of control fEPSP slope at 58-60 min: 145.46+/−18.30
[4]
  cell death induced by TBI: significant reductions in cell death
